From patent US11710542B2, “Methods of protein docking and rational drug design” (priority 2016, dated 2023)
≈ marks a conversion by molar mass, not a printed value.

How the values were obtained:
E. coli B strain = experiment: MIC (MIC90) by broth microdilution, E. coli B strain expressing TEM β-lactamase variants; format: cell-based; conditions: for MIC: E. coli B strain, no plasmid (no TEM β-lactamase), MIC90
Method: (§1) Plasmids were then transformed into BL21(DE3) cells (Intact Genomics) and DH5a cells (Life Technologies) to create strains in which β-lactamases are expressed using a native promoter.
(§2) Antibiotic resistance of the strains was determined by measuring their minimum inhibitory concentrations (MIC90's) using the broth microdilution method according to the Clinical and Laboratory Standards Institute (CLSI, formerly the NCCLS) guidelines (CLSI document M07-A9, 2012). Each well of a 96-well microtiter plate was filled with 75 μL of sterile Mueller Hinton II (MHII) media broth (Sigma). Each antibiotic was dissolved in water making a 20 mM solution, then diluted with sterile MHII media broth to […] (BP) or 288 μM (CFX). Exactly 75 μL of the compound solution was added to the first well of the microtiter plate and 2-fold serial dilutions were made down each row of the plate. Exactly 75 μL of bacterial inoculum (5×10^5 CFU/mL) was then added to each well giving a total volume of 150 μL/well and compound concentration gradients of […] (BP) and 72 μM-0.04 μM (CXF). The plate was incubated at 37° C. for 17 h, and then each well was examined for bacterial growth. The MIC90 was recorded as the lowest compound concentration required to inhibit 90% of bacterial growth as judged by turbidity of the culture media relative to a row of wells filled with a water standard. Gentamicin was included in a control row at a concentration gradient of 174 μM-0.09 μM.

E. coli K-12 strain = experiment: MIC (MIC90) by broth microdilution, E. coli K-12 strain expressing TEM β-lactamase variants; format: cell-based; conditions: for MIC: E. coli K-12 strain, no plasmid (no TEM β-lactamase), MIC90
Method: as §1, §2

Molecule: CC1(C)S[C@@H]2[C@H](NC(=O)Cc3ccccc3)C(=O)N2[C@H]1C(=O)O [BP, benzylpenicillin]
- MIC (E. coli B strain; Escherichia coli): < 23 µM
- MIC (E. coli K-12 strain; Escherichia coli, K12STRAIN): 50 µM (≈ 16.7 µg/mL)

Molecule: CO/N=C(\C(=O)N[C@@H]1C(=O)N2C(C(=O)O)=C(COC(C)=O)CS[C@H]12)c1csc(N)n1 [CFX, cefotaxime]
- MIC (E. coli B strain): <0.035 µM
- MIC (E. coli K-12 strain): <0.035 µM

Molecule: Gentamicin
- MIC (E. coli B strain): 0.68 µM
- MIC (E. coli K-12 strain): 0.34 µM

B1: TEM-1: wild-type TEM β-lactamase reference (protein, UniProt P62593 24-286, looked up)
Beta-lactamase TEM: HPETLVKVKDAEDQLGARVGYIELDLNSGKILESFRPEERFPMMSTFKVLLCGAVLSRVDAGQEQLGRRIHYSQNDLVEYSPVTEKHLTDGMTVRELCSAAITMSDNTAANLLLTTIGGPKELTAFLHNMGDHVTRLDRWEPELNEAIPNDERDTTMPAAMATTLRKLLTGELLTLASRQQLIDWMEADKVAGPLLRSALPAGWFIADKSGAGERGSRGIIAALGPDGKPSRIVVIYTTGSQATMDERNRQIAEIGASLIKHW
- BP MIC (E. coli B strain; benzylpenicillin (BP), E. coli B strain expressing the TEM variant, MIC90, 37° C., 17 h, most commonly observed value, error +/− one well): 24.00 mM
- CFX MIC (E. coli B strain; cefotaxime (CFX), E. coli B strain expressing the TEM variant, MIC90, 37° C., 17 h): <0.035 µM
- Gentamicin MIC (E. coli B strain; gentamicin (control antibiotic), E. coli B strain expressing the TEM variant, MIC90, 37° C., 17 h): 0.68 µM
- BP MIC (E. coli K-12 strain; benzylpenicillin (BP), E. coli K-12 strain expressing the TEM variant, MIC90, 37° C., 17 h): 24.00 mM
- CFX MIC (E. coli K-12 strain; cefotaxime (CFX), E. coli K-12 strain expressing the TEM variant, MIC90, 37° C., 17 h): <0.035 µM
- Gentamicin MIC (E. coli K-12 strain; gentamicin (control antibiotic), E. coli K-12 strain expressing the TEM variant, MIC90, 37° C., 17 h): 0.17 µM
